A word on the IC50: it is the point on the concentration scale where inhibition reaches its midpoint.

In one experiment the test system is HBeAg (surrogate marker for cccDNA) in HepDES19 cells. The experiment in a line: Engineered HepDES19 primary screen assay (HBeAg ELISA). It counts as cell-based, HBV. To be noted: Hepatitis B virus, HepDES19, 120 h, read-out: IC50 (HBeAg level, HepDES19 primary screen assay), HepDES19 cells, 5 days compound incubation, HBeAg ELISA. The source says: The assay was employed to screen for novel cccDNA inhibitors. HepDES19 is a cccDNA-producing cell line. In this cell line, HBeAg in the cell culture supernatant as surrogate marker, as HBeAg production depends on cccDNA level and activity. HepDES19 is an engineered cell line which contains a 1.1 unit length HBV genome, and pgRNA transcription from the transgene is controlled by Tetracycline (Tet). In the absence of Tet, pgRNA transcription will be induced, but HBV e antigen (HBeAg) could not be produced from this pgRNA due to very short leader sequence before the HBeAg start codon and the start codon is disrupted. Only after cccDNA is formed, the missing leader sequence and start codon mutation would be restored from the 3′-terminal redundancy of pgRNA, and then HBeAg could be synthesized. Therefore, HBeAg could be used as a surrogate marker for cccDNA (Zhou, T. et al., Antiviral Res. (2006), 72(2), 116-124; Guo, H. et al., J. Virol. (2007), 81(22), 12472-12484).
HepDES19 cells were seeded at 2×10^6 cells per T150 flask and cultured with the culture medium (Dulbecco's Modified Eagle Medium: Nutrient Mixture F-12 [DMEM-F12, Gibco Cat. 11320-82], 10% Fetal Bovine Serum [FBS, Clontech Cat. 631101], 0.1 mM Non-Essential Amino Acids Solution [NEAA, Gibco Cat. 11140-050], 50 μg/mL Penicillin-Streptomycin [PS, Invitrogen Cat. 15140-163], 500 μg/mL Geneticin [G418, Invitrogen Cat. 10131-027]) containing 3 μg/mL Tet (Sigma, Cat. 87128) for 5 days. Cells were then seeded at 4×10^6 cells per T150 in the same culture medium as described above in the absence of Tet for 8 days. Cells were then harvested and frozen at density of 2×10^6 cells per mL. For compound testing, the frozen cells were thawed and seeded into 96-well plates at a density of 6×10^4 cells per well. At 24 hours after seeding, half log serial dilutions of compounds made with Dimethyl sulfoxide (DMSO, Sigma, Cat. D2650) were further diluted with the same culture medium as described above before they were added to the cells to reach desired final compound concentrations and 1% DMSO concentration. Plates were then incubated at 37° C. for another 5 days before measurement of HBeAg level and cell viability. […] HBeAg level were measured with enzyme-linked immunosorbent assay (ELISA) kit (Shanghai Kehua Diagnostic Medical Products Co., Ltd). Cell viability was assessed using Cell Counting Kit-8 (DonJindo, Cat. CK04-20). IC50 values were derived from the dose-response curve using 4 parameter logistic curve fit method.
The compounds of the present invention were tested for their capacity to inhibit extracellular HBeAg level as described herein.
Background: ELISA stands for enzyme-linked immunosorbent assay.
On to `O=C(O)[C@H]1CC[C@@H](Oc2cc(Br)ccc2-c2cc(=O)c3cccc(Cl)c3o2)C1` (relative stereo) [Example B028-A, Cis-3-[5-bromo-2-(8-chloro-4-oxo-chromen-2-yl)phenoxy]cyclopentanecarboxylic acid], for which the IC50 came to 0.471 µM.
For the compound `O=C(O)CCOc1cc(Br)c(OC(F)(F)F)cc1-c1cc(=O)c2cccc(Cl)c2o1` [Example A014, 3-[5-bromo-2-(8-chloro-4-oxo-chromen-2-yl)-4-(trifluoromethoxy)phenoxy]propanoic acid], the half-inhibitory concentration (IC50) is 3.22 µM.
In the case of `O=C(O)CCOc1cc(OC(F)(F)F)ccc1-c1cc(=O)c2ccc(Br)c(Cl)c2o1` [Example A023, 3-[2-(7-bromo-8-chloro-4-oxo-chromen-2-yl)-5-(trifluoromethoxy)phenoxy]propanoic acid], the IC50 is 29.6 µM.
Same read-out and setting: to `Cc1cc(-c2cc(=O)c3cccc(Br)c3o2)c(OCCC(=O)O)cc1Cl` [Example A025, 3-[2-(8-bromo-4-oxo-chromen-2-yl)-5-chloro-4-methyl-phenoxy]propanoic acid] belongs 3.55 µM; to `COC(=O)CCOc1cc(Cl)c(C)cc1-c1cc(=O)c2cccc(Cl)c2o1` [Example A038, methyl 3-[5-chloro-2-(8-chloro-4-oxo-chromen-2-yl)-4-methyl-phenoxy]propanoate], 4.79 µM; to `O=C(O)CCOc1cc(C(F)(F)F)ccc1-c1cc(=O)c2c(O)ccc(Cl)c2o1` [Example A045, 3-[2-(8-chloro-5-hydroxy-4-oxo-chromen-2-yl)-5-(trifluoromethyl)phenoxy]propanoic acid], 2.03 µM.
Same read-out and setting: the result for `O=C(O)COc1cc(OC(F)(F)F)ccc1-c1cc(=O)c2cccc(Cl)c2o1` [Example A048, 2-[2-(8-chloro-4-oxo-chromen-2-yl)-5-(trifluoromethoxy)phenoxy]acetic acid] reads 9.38 µM; that for `O=C(O)CCCCCCOc1cc(C(F)(F)F)ccc1-c1cc(=O)c2cccc(Cl)c2o1` [Example A066, 7-[2-(8-chloro-4-oxo-chromen-2-yl)-5-(trifluoromethyl)phenoxy]heptanoic acid], 2.44 µM; that for `Cc1cc(-c2cc(=O)c3cccc(Cl)c3o2)c(OCC2(CC(=O)O)CC2)cc1Br` [Example A068, 2-[1-[[5-bromo-2-(8-chloro-4-oxo-chromen-2-yl)-4-methyl-phenoxy]methyl]cyclopropyl]acetic acid], 5.7 µM.
Still for that read-out and setting: the result for `O=C(O)c1cccc(COc2cc(Br)ccc2-c2cc(=O)c3cccc(Cl)c3o2)c1` [Example A072, 3-[[5-bromo-2-(8-chloro-4-oxo-chromen-2-yl)phenoxy]methyl]benzoic acid] reads 0.366 µM; that for `CS(=O)(=O)C1CCN(C(=O)COc2cc(C(F)(F)F)ccc2-c2cc(=O)c3cccc(Cl)c3o2)C1` (centres unmarked) [Example A087, 8-chloro-2-[2-[2-(3-methylsulfonylpyrrolidin-1-yl)-2-oxo-ethoxy]-4-(trifluoromethyl)phenyl]chromen-4-one], 4.98 µM; that for `CCNS(=O)(=O)N[C@@H](COc1cc(C(F)(F)F)ccc1-c1cc(=O)c2cccc(Cl)c2o1)C(=O)OC` [Example A098, methyl (2S)-3-[2-(8-chloro-4-oxo-chromen-2-yl)-5-(trifluoromethyl)phenoxy]-2-(ethylsulfamoylamino)propanoate], 0.036 µM.
Consider `COc1cc(OC2CC(C(=O)O)C2)c(-c2cc(=O)c3cccc(Cl)c3o2)cc1OC` (centres unmarked) [Example B006, 3-[2-(8-chloro-4-oxo-chromen-2-yl)-4,5-dimethoxy-phenoxy]cyclobutanecarboxylic acid], for which the IC50 came out at 5.48 µM.
Still for that read-out and setting: to `COc1ccc(-c2cc(=O)c3cccc(Cl)c3o2)c(O[C@H]2C[C@H](C(=O)O)C2)c1` [Example B011-B, Trans-3-[2-(8-chloro-4-oxo-chromen-2-yl)-5-methoxy-phenoxy]cyclobutanecarboxylic acid] belongs 3.48 µM; to `COc1cc(O[C@H]2C[C@H](C(=O)O)C2)c(-c2cc(=O)c3cccc(Cl)c3o2)cc1Br` [Example B014, Trans-3-[4-bromo-2-(8-chloro-4-oxo-chromen-2-yl)-5-methoxy-phenoxy]cyclobutanecarboxylic acid], 15.5 µM.
Take `CC(C)c1ccc(-c2cc(=O)c3cccc(Cl)c3o2)c(O[C@H]2C[C@@H](C(=O)O)C2)c1` [Example B020-A, Cis-3-[2-(8-chloro-4-oxo-chromen-2-yl)-5-isopropyl-phenoxy]cyclobutanecarboxylic acid]: the IC50 came out at 2.84 µM.
The same measure, in the same setting: the result for `COc1ccc(OC[C@H]2C[C@@H](C(=O)O)C2)c(-c2cc(=O)c3cccc(Cl)c3o2)c1` [Example B027-A] reads 2.47 µM.
Take `O=c1cc(-c2ccc(C3CC3)cc2O[C@H]2C[C@H](C(=O)O)C2)oc2c(Cl)cccc12` [Example B035-B, trans-3-[2-(8-chloro-4-oxo-chromen-2-yl)-5-cyclopropyl-phenoxy]cyclobutanecarboxylic acid]: the IC50 was 2.02 µM.
Still for that read-out and setting: the result for `O=c1cc(-c2ccc(Br)cc2O[C@H]2C[C@H](C(=O)O)C2)oc2c(Cl)ccc(O)c12` [Example B036-B, trans-3-[5-bromo-2-(8-chloro-5-hydroxy-4-oxo-chromen-2-yl)phenoxy]cyclobutanecarboxylic acid] reads 0.407 µM; that for `Cc1ccc(-c2cc(=O)c3c(O)ccc(Cl)c3o2)c(O[C@H]2C[C@H](C(=O)O)C2)c1` [Example B037-B, Trans-3-[2-(8-chloro-5-hydroxy-4-oxo-chromen-2-yl)-5-methyl-phenoxy]cyclobutanecarboxylic acid], 0.149 µM.
On the same count and under the same terms, the result for `CCOc1ccc(-c2cc(=O)c3c(O)ccc(Cl)c3o2)c(O[C@H]2C[C@@H](C(=O)O)C2)c1` [Example B039-A, Cis-3-[2-(8-chloro-5-hydroxy-4-oxo-chromen-2-yl)-5-ethoxy-phenoxy]cyclobutanecarboxylic acid] reads 6.76 µM; that for `Cc1cc(-c2cc(=O)c3c(O)ccc(Cl)c3o2)c(O[C@H]2C[C@@H](C(=O)O)C2)cc1Br` [Example B040-A, cis-3-[5-bromo-2-(8-chloro-5-hydroxy-4-oxo-chromen-2-yl)-4-methyl-phenoxy]cyclobutanecarboxylic acid], 0.302 µM.
Still for that read-out and setting: the result for `Cc1cc(-c2cc(=O)c3cccc(Cl)c3o2)c(O[C@H]2C[C@H](C(=O)NS(C)(=O)=O)C2)cc1Br` [Example B049-B, Trans-3-[5-bromo-2-(8-chloro-4-oxo-chromen-2-yl) 4-methyl-phenoxy]-N-methylsulfonyl-cyclobutanecarboxamide] reads 8.74 µM; that for `COc1cc(O[C@H]2C[C@@H](C(=O)NS(C)(=O)=O)C2)c(-c2cc(=O)c3cccc(Cl)c3o2)cc1Br` [Example B055-A, Cis-3-[4-bromo-2-(8-chloro-4-oxo-chromen-2-yl)-5-methoxy-phenoxy]-N-methylsulfonyl-cyclobutanecarboxamide], 3.59 µM; that for `O=C(O)[C@@H]1C[C@H](Oc2cc(Br)ccc2-c2cc(=O)c3cccc(Cl)c3o2)CN1` [Example B075, (2S,4S)-4-[5-bromo-2-(8-chloro-4-oxo-chromen-2-yl)phenoxy]pyrrolidine-2-carboxylic acid], 0.774 µM.

The experiment is the same for the next values; noted with them: read-out: IC50 (HBeAg level, HepDES19 primary screen assay); HepDES19 cells, 5 days compound incubation, HBeAg ELISA.
Turning to `O=C(O)C1CC(COc2cc(Br)ccc2-c2cc(=O)c3cccc(Cl)c3o2)C1` (stereo in doubt) [Example B025-A, Cis-3-[[5-bromo-2-(8-chloro-4-oxo-chromen-2-yl)phenoxy]methyl]cyclobutanecarboxylic acid], the IC50 is 4.92 µM.

(Values after patent US11708344B2, “Flavone derivatives for the treatment and prophylaxis of hepatitis B virus disease” (Hoffmann-La Roche Inc., priority 2018, dated 2023).)
